From ChEMBL document CHEMBL2169826, “Pharmacokinetic benefits of 3,4-dimethoxy substitution of a phenyl ring and design of isosteres yielding orally available cathepsin K inhibitors” (J Med Chem, 2012)
Values after ≈ are worked out from the molar mass of the structure shown.

How the values were obtained:
Cathepsin K = molecular target: T1, Cathepsin K (Homo sapiens, UniProt P43235); test: Inhibition of human recombinant cathepsin-k using Z-Phe-Arg-AMC as substrate preincubated for 15 mins measured after 1 hr by QFRET assay
T1 sequence (P43235 whole entry): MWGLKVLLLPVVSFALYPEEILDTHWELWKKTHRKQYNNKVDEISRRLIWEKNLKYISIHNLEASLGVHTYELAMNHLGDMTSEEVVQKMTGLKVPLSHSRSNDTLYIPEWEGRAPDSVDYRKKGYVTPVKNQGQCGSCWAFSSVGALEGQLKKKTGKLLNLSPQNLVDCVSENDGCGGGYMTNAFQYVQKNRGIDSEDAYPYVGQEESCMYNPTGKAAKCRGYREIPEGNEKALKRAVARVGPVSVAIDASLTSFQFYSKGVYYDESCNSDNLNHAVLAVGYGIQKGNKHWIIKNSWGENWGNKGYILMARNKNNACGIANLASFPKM

Cathepsin B = Cathepsin B (Homo sapiens, UniProt P07858); test: Inhibition of human recombinant cathepsin-B using Z-Arg-Arg-AMC as substrate preincubated for 15 mins measured after 1 hr by QFRET assay
Cathepsin S = Cathepsin S (Homo sapiens, UniProt P25774); test: Inhibition of human recombinant cathepsin-S using Z-Val-Val-Arg-AMC as substrate preincubated for 15 mins measured after 1 hr by QFRET assay
Cathepsin S, sequence (P25774 whole entry): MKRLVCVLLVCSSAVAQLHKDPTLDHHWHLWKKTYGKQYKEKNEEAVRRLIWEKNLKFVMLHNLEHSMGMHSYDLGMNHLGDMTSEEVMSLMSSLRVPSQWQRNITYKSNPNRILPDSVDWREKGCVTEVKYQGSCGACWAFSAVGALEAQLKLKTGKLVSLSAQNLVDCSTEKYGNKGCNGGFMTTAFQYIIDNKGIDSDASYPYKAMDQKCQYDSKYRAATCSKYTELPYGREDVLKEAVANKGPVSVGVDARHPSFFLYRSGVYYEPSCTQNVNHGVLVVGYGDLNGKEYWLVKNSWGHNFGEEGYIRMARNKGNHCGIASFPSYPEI

[1] = Metabolic stability of the compound in human liver microsomes assessed as compound turnover after 120 mins
Procathepsin L = Procathepsin L (Homo sapiens, UniProt P07711); test: Inhibition of human recombinant cathepsin-L using Z-Phe-Arg-AMC as substrate preincubated for 15 mins measured after 1 hr by QFRET assay
Procathepsin L, sequence (P07711 whole entry): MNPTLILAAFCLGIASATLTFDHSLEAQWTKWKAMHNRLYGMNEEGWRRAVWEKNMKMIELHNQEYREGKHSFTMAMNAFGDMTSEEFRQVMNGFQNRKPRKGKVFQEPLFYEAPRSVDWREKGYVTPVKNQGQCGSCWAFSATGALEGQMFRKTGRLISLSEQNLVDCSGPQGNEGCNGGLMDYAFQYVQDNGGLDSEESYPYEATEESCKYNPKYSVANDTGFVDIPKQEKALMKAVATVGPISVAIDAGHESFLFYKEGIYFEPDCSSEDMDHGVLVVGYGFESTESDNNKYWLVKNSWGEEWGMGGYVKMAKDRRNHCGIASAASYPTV

[2] = Metabolic stability of the compound in rat liver microsomes assessed as compound turnover after 120 mins
physchem = conditions: buffer, pH 7.4
[3] = Percentage unbound in human plasma; format: ADME, cell-free
[4] = Aqueous solubility of the compound in at pH 7.4; conditions: buffer
[5] = Percentage unbound in rat plasma; format: ADME, cell-free
[6] = Oral bioavailability in Alderley Park Han Wistar rat at 2 mg/kg; format: ADME, organism-based; conditions: in vivo
in vitro = conditions: rat, hepatocytes
in vivo = conditions: Alderley Park Han Wistar, rat, plasma, iv, 2 mg/kg
[7] = Volume of distribution at steady state in Alderley Park Han Wistar rat at 2 mg/kg, iv and 2 mg/kg, po; format: ADME, organism-based; conditions: in vivo, read-out: Vdss
[8] = Inhibition of osteoclastogenesis in human bone marrow-derived stem cells assessed as reduction of pit formation by measuring TRACP5b activity after 7 days by bone TRAP assay; format: functional; conditions: 168 h

| SMILES | IC50 (Cathepsin K) [µM] | IC50 (Cathepsin B) [µM] | IC50 (Cathepsin S) [µM] | microsomal CLint at 2 h [1] [µL/min/mg] | IC50 (Procathepsin L) [µM] | microsomal CLint at 2 h [2] [µL/min/mg] | logD (physchem) | fraction unbound [3] | solubility [4] [µM] | fraction unbound [5] | bioavailability [6] [%] | hepatocyte CLint (in vitro) [µL/min/1e6 cells] | clearance (in vivo) [mL/min/kg] | Vd [7] [L/kg] | IC50 [8] [µM] |
| --- | --- | --- | --- | --- | --- | --- | --- | --- | --- | --- | --- | --- | --- | --- | --- |
| C[C@@H]1CN(c2ccc(S(C)(=O)=O)cc2)CCN1C(=O)[C@@H]1CCCC[C@H]1C(=O)NC1(C#N)CC1 | 0.012 | 0.977 | 0.549 | 9.4 | > 10 | < 2 |  |  |  |  |  |  |  |  |  |
| CC1CN(c2ccc(S(C)(=O)=O)cc2)C(C)CN1C(=O)[C@@H]1CCCC[C@H]1C(=O)NC1(C#N)CC1 (stereo not given in full) | 0.312 | 40 | > 7.43 | < 2 | > 10 | 4.3 |  |  |  |  |  |  |  |  |  |
| N#CCNC(=O)[C@@H]1CCCC[C@H]1C(=O)N1CCN(c2ccc(C#N)cc2)CC1 | 0.025 |  | 2.6 |  | > 10 |  | 1.8 | 0.53 |  |  |  |  |  |  |  |
| C[C@@H]1CN(c2ccccc2)CCN1C(=O)[C@@H]1CCCC[C@H]1C(=O)NC1(C#N)CC1 | 0.011 | 0.649 | 1.3 | 20 | > 10 | > 347 | 2.4 |  |  |  |  |  |  |  |  |
| COc1cccc(N2CCN(C(=O)[C@@H]3CCCC[C@H]3C(=O)NCC#N)CC2)c1 | 0.008 |  |  | 5.6 | > 10 | 149 |  |  |  |  |  |  |  |  |  |
| C[C@@H]1CN(c2ccc(S(C)(=O)=O)cc2)C[C@H](C)N1C(=O)[C@@H]1CCCC[C@H]1C(=O)NC1(C#N)CC1 | 0.211 | 24.9 | > 11.8 | < 2 | > 10 | < 2 |  |  |  |  |  |  |  |  |  |
| COc1ccc(N2CCN(C(=O)[C@@H]3CCCC[C@H]3C(=O)NC3(C#N)CC3)CC2)cc1 | 0.014 | 1.44 |  | < 2 | > 10 | 48 | 1.7 | 0.46 | > 2000 | 0.25 | 3.5 | 42 | > 73 | 1.1 |  |
| N#CCNC(=O)[C@@H]1CCCC[C@H]1C(=O)N1CCN(c2ccc(F)cc2)CC1 | 0.023 | 0.315 | 1.68 | < 2.9 | > 10 | 31 | 1.9 | 0.39 | > 3700 |  |  |  |  |  |  |
| Cc1ccc(N2CCN(C(=O)[C@@H]3CCCC[C@H]3C(=O)NCC#N)CC2)cc1 | 0.011 | 0.572 |  |  | > 10 |  |  |  |  |  |  |  |  |  |  |
| Cc1nnc(C)c2cc(N3CCN(C(=O)[C@@H]4CCCC[C@H]4C(=O)NC4(C#N)CC4)[C@H](C)C3)ccc12 | 0.017 | 2.94 | 1.75 |  | > 10 |  | 1.9 | 0.49 |  | 0.62 | 1.4 |  |  | 4.1 |  |
| CC1(C)CN(c2ccc(S(C)(=O)=O)cc2)CCN1C(=O)[C@@H]1CCCC[C@H]1C(=O)NC1(C#N)CC1 | 0.045 | 3.51 | 3.75 | < 2 | > 10 | 4.9 |  |  |  |  |  |  |  |  |  |
| CC(C)(F)C[C@H](N[C@@H](c1ccc(-c2ccc(S(C)(=O)=O)cc2)cc1)C(F)(F)F)C(=O)NC1(C#N)CC1 [ODANACATIB] |  |  |  |  |  |  |  |  |  |  |  |  |  |  | 0.1 |
| CCCN1CCN(c2ccc(C(=O)NC3(C(=O)NCC#N)CCCCC3)cc2)CC1 [BALICATIB] |  |  |  |  |  |  |  |  |  |  |  |  |  |  | 0.0266 |
| COc1ccc(N2CCN(C(=O)[C@@H]3CCCC[C@H]3C(=O)NC3(C#N)CC3)[C@H](C)C2)nc1OC | 0.005 | 1.69 | 1.1 | 4.2 | > 10 | 13 | 2.3 | 0.24 | > 1700 | 0.41 | 55 | < 2 | 15 | 0.7 |  |
| CS(=O)(=O)c1ccc(N2CCN(C(=O)[C@@H]3CCCC[C@H]3C(=O)NCC#N)CC2)cc1 | 0.011 | 1.18 | 1.29 | < 2 | > 10 | < 5.3 | 0.67 | > 0.5 | 280 (≈ 121 µg/mL) |  |  |  |  |  |  |
| N#CCNC(=O)[C@@H]1CCCC[C@H]1C(=O)N1CCN(c2ccccc2)CC1 |  |  |  |  | > 10 |  |  | > 0.5 |  |  |  |  |  |  |  |
| C[C@@H]1CN(c2ccc3c(c2)OCO3)CCN1C(=O)[C@@H]1CCCC[C@H]1C(=O)NC1(C#N)CC1 | 0.009 | 0.645 | 1.15 | 8.8 | > 10 | 83 |  |  |  |  |  |  |  |  |  |
| C[C@@H]1CN(c2ccccc2)CCN1C(=O)[C@@H]1CCCC[C@H]1C(=O)NCC#N | 0.006 | 0.462 | 1.22 | 16 | > 10 | > 347 |  |  |  |  |  |  |  |  |  |
| C[C@H]1CN(c2ccc(S(C)(=O)=O)cc2)CCN1C(=O)[C@@H]1CCCC[C@H]1C(=O)NC1(C#N)CC1 | 0.059 | 3.43 | 1.51 | < 2 | > 10 | < 2 |  |  |  |  |  |  |  |  |  |
| Cc1nn(C)c2ccc(N3CCN(C(=O)[C@@H]4CCCC[C@H]4C(=O)NC4(C#N)CC4)[C@H](C)C3)cc12 | 0.009 | 0.971 | 1.23 |  | > 10 |  | 2.8 | 0.25 | > 1400 | 0.27 | 64 |  |  | 2.5 |  |
| CS(=O)(=O)c1ccc(N2CCN(C(=O)[C@@H]3CCCC[C@H]3C(=O)NC3(C#N)CC3)CC2)cc1 | 0.018 | 2.4 | 2.15 | < 2 | > 10 | < 2.2 |  | > 0.5 | 2500 (≈ 1150 µg/mL) |  | 16 |  | 22 |  |  |
| COc1ccc(N2CCN(C(=O)[C@@H]3CCCC[C@H]3C(=O)NCC#N)CC2)cc1 | 0.006 | 0.399 | 1.05 | 7.1 | > 10 | 77 | 1.6 | > 0.5 | 390 (≈ 150 µg/mL) |  |  |  |  |  |  |
| N#CC1(NC(=O)[C@@H]2CCCC[C@H]2C(=O)N2CCN(c3ccccc3)CC2)CC1 | 0.015 | 1.44 | 2.26 | 6.9 | > 10 | 107 |  | > 0.28 |  | 0.28 | 0.2 | 36 | 19 | 1.1 |  |
